The record followed here is patent publication US20220296536A1, “PAIN MANAGEMENT METHODOLOGY” (priority 2019, published 2022).

In assay [1] the test system is pain in a patient. The experiment in a line: earlier pharmaceutical treatment of Patient A's pain. Conditions: terminal prostate cancer, before use of the method. The assay is classed as in vivo, human. The text has this: Patient A was a person having terminal prostate cancer. Patient A was suffering a high level of pain, for which pharmaceutical treatment, even morphine, had become ineffective.

Assay [2] relates to pain in a patient. As to the method: In each of the examples, below, the method of the invention was used: the patient was aurally isolated in a quiet room, being the waiting room or vestibule to an operating theatre with only the deliverer present during the aural isolation period. The patient was exposed to the repetitive, positive message delivered orally by the deliverer. The chosen period was between 20 and 30 minutes. The deliverer repeated the message constantly during the chosen period. The message was: ‘When I wake up, I will have no pain’.
At the conclusion of the chosen period, the patient was administered propofol and became unconscious.

The mark [3] stands for this setting: Example 5, Patient B, hip replacement.

Like-named read-outs stand apart in the source and are kept apart here.

For the compound `CN1CC[C@]23c4c5ccc(O)c4O[C@H]2[C@@H](O)C=C[C@H]3[C@H]1C5` [morphine], the “effect of pharmaceutical treatment on high level of pain” value in the assay on pain in a patient [1] is listed as “ineffective”.

As to `CC(C)c1cccc(C(C)C)c1O` [propofol, 2,6-diisopropylphenol], the pain after surgery result in the assay on pain in a patient [2] (Example 1, Patient A, terminal prostate cancer, surgery for incontinence problem, from regaining consciousness until three weeks later) was “free of pain”; in the assay with pain in a patient [2] (Example 6, Patient B, painful infection within left shoulder, surgery) it was “pain-free”. Also, the pain result in the assay with pain in a patient [2] (Example 2, Patient B, bleeding on the brain, skull drilled to drain blood) is given as “experienced no pain”. Besides, the pain post-surgery result is reported as “experienced no pain post-surgery” with pain in a patient [2] (Example 3, Patient B, cataract surgery); “no pain post-surgery” with pain in a patient [2] (setting [3]); “no pain post-surgery” with pain in a patient [2] (Example 7, Patient B, osteomyelitis in right hip, stripping of veins and skin graft); “no pain post-surgery each time” in the assay with pain in a patient [2] (Example 8, Patient B, open-heart surgery to replace aortic valve, three surgeries); “no pain post-surgery” with pain in a patient [2] (Example 9, Patient C, hip replacement); “experienced no pain post-surgery” in the assay with pain in a patient [2] (Example 10, Patient D, radical hysterectomy). Also, in the assay with pain in a patient [2] (Example 4, Patient B, radical endoscopic sinus surgery), the post-operative pain result is recorded as “experienced no post-operative pain”. Also, the recovery result in the assay with pain in a patient [2] (setting [3]) was “accelerated recovery”. In addition, the “time to being ambulatory” value in the assay on pain in a patient [2] (Example 5, Patient B, hip replacement, 7 days bed rest normally expected) was “ambulatory within one hour”. For the same compound, in the assay on pain in a patient [2] (all patients of Examples 1-10, propofol given after 20-30 min aural isolation with message), the “need for pharmaceutical pain relief after use of the method” value is “None of the patients in the examples below required pharmaceutical pain relief”. The recovery from surgery result in the assay with pain in a patient [2] (all patients of the examples, when surgery was used) was “All experienced accelerated recovery from surgery”.
